Legend:
[1] = test system: Plasmodium falciparum; test: NOVARTIS: Inhibition of Plasmodium falciparum 3D7 (drug-susceptible) proliferation in erythrocyte-based infection assay; type: functional, organism-based; conditions: Plasmodium falciparum, 3D7
[2] = test system: Plasmodium falciparum; test: NOVARTIS: Inhibition of Plasmodium falciparum W2 (drug-resistant) proliferation in erythrocyte-based infection assay; type: functional, organism-based; conditions: Plasmodium falciparum, W2; read-out: EC50
[3] = NOVARTIS: Cytotoxicity against human hepatocellular carcinoma cell line (Huh7); type: toxicity, cell-based, Huh-7; conditions: Huh7 cells (hepatocellular carcinoma cell line)

SMILES	EC50 [1]	EC50 [2]	CC50 [3]
COc1ccc(C2c3cccn3-c3ccccc3N2C(=O)CN(C(=O)Nc2ccc(C(F)(F)F)cc2)C2CC2)cc1 (stereo not drawn)	7510 nM	6200 nM	> 100000 nM
CCCCCCN(C(=O)c1ccc2ccccc2c1)C(CC)c1nc2ccccc2c(=O)n1-c1ccccc1OC (stereo not drawn)	641 nM	631 nM	> 10000 nM
CCOC(=O)C1(CC)CC(C)(C(=O)C[n+]2cccc(Br)c2)OC1=O (stereo not drawn)	410 nM	628 nM	> 10000 nM
COc1ccc(C(=O)C(C)[n+]2ccccc2-c2ccccn2)cc1 (stereo not drawn)	602 nM	> 751 nM	> 12100 nM
Cc1ccc(C(=O)NCCN2CCCCC2)cn1	> 1310 nM	621 nM	> 10000 nM
COc1cccc(CC2(CO)CCCN(Cc3sc(N4CCCC4)nc3Cl)C2)c1 (stereo not drawn)	> 12500 nM	> 6210 nM	> 100000 nM
Cc1nc(-c2ccccc2)nc(C(=O)N2CCN(C(=O)/C=C/c3ccccc3)C(C)C2)c1C(=O)OC(C)C (stereo not drawn)	> 1250 nM	621 nM	> 10000 nM
COCCNc1cc(-c2ccccn2)nc(-c2ccccn2)n1	440 nM	624 nM	> 10000 nM
CCN(CC)[P+](N(C)C[Si](C)(C)C)(N(CC)CC)N(CC)CC	154 nM	523 nM	8410 nM
CCN(CC)CCN(Cc1cc2ccc(C)cc2[nH]c1=O)C(=S)NC(C)c1ccccc1 (stereo not drawn)	1690 nM	1340 nM	21500 nM
CC(C)CC(NC(=O)/C(=C\c1ccco1)NC(=O)c1ccccc1)C(=O)OCc1ccccc1 (stereo not drawn)	> 1250 nM	> 625 nM	> 10000 nM
CCCCN(CC(=O)N1c2ccccc2-n2cccc2C1c1ccc(OC)cc1)C(=O)Nc1cccc(F)c1 (stereo not drawn)	8600 nM	6250 nM	> 100000 nM
CCCCCC(=O)N(CCN(C)C)C(CC)c1nc2ccccc2c(=O)n1-c1ccc(F)cc1 (stereo not drawn)	> 1250 nM	> 628 nM	> 10000 nM
CC(=O)N1CCN(C(=O)CCCSc2nnc(-c3ccc(C)cc3)n2-c2cccc(C)c2)CC1C (stereo not drawn)	> 914 nM	> 634 nM	> 10000 nM
O=C(CSc1ccccc1)NCCCCNc1ccnc2cc(Cl)ccc12	488 nM	632 nM	> 10000 nM
COC(CNc1cc(-c2ccccn2)nc(-c2ccccn2)n1)OC	336 nM	633 nM	> 10000 nM
O=C(Nc1ccccc1)C1Cc2ccccc2CN1S(=O)(=O)c1ccc(F)cc1 (stereo not drawn)	> 12500 nM	6310 nM	> 100000 nM
O=C1CCC(CCNCc2ccc(Cl)cc2)N1CC1(N2CCCCC2)CCCC1 (stereo not drawn)	> 1250 nM	632 nM	> 10000 nM
CCCc1nc2ccc(NC(=O)NCC)cc2c(=O)n1Cc1ccc(-c2ccccc2)cc1	9050 nM	6320 nM	> 100000 nM
CC(C)c1ccc(/C=C/C(=O)NCc2ccco2)cc1	890 nM	628 nM	> 10000 nM
CCC(=O)OC(C(C)C(=O)O)C(C)C1OC2(CCC(C)(C3CCC(C)(C4OC(C5OC(O)(CO)C(C)CC5C)CC4C)O3)O2)CC(O)C1C (stereo not drawn)	379 nM	387 nM	> 6250 nM
COc1ccc([C@]23Oc4cc(OC)cc(OC)c4[C@@]2(O)[C@@H](O)C(C(=O)N(C)C)[C@@H]3c2ccccc2)cc1 (stereo partly drawn)	> 602 nM	630 nM	> 10000 nM
COc1cc(OC)cc(N2C(=O)N(Cc3ccc(C(C)(C)C)cc3)c3ccccc3S2(=O)=O)c1	3750 nM	6300 nM	> 100000 nM
COC(=O)C1=C(C)NC(=Cc2cc(C)n(-c3ccc(Cl)c(Cl)c3)c2C)C1=O	6900 nM	6320 nM	> 100000 nM
OCCN1CCN(c2cc(-c3cccnc3)nc(-c3ccncc3)n2)CC1	945 nM	626 nM	> 10000 nM
CN(C)c1ccc(C(=Cc2cc(-c3ccccc3)cc(-c3ccccc3)[o+]2)c2ccc(N(C)C)cc2)cc1	1990 nM	898 nM	14400 nM
